# Results taken from ChEMBL document CHEMBL1201862, “PubChem BioAssay data set” (2004).
# Values joined by “and” are separate entries in the source; they are usually repeats but may differ in a detail not shown here. Equal values may be shown once.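 Assay format: 96-well plates, 48-hour exposure. GI50 = concentration required for 50% inhibition of growth.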 Active and inactive are the calls of the source. Cut-off read from the data, not from the text of the source: active = GI50 up to about 1.1 µM and inactive = higher.
# How the values were obtained:
# Assay in all cases: growth of human tumour cells (NCI), 48 h
# [1] = test system: UO-31
# [2] = test system: Hs-578T
# [3] = test system: SR
# [4] = test system: OVCAR-4
# [5] = test system: A498
# [6] = test system: LOX IMVI
# [7] = test system: HCC 2998
# [8] = test system: NCI-H522
# [9] = test system: PC-3
# [10] = test system: MDA-MB-435
# [11] = test system: K562
# [12] = test system: NCI/ADR-RES
# [13] = test system: ACHN
# [14] = test system: COLO 205
# [15] = test system: SK-MEL-5
# [16] = test system: SF-295
# [17] = test system: MDA-N
# [18] = test system: CAKI-1
# [19] = test system: SK-MEL-2
# [20] = test system: A549
# [21] = test system: NCI-H23
# [22] = test system: SF-539
# [23] = test system: TK-10
# [24] = test system: OVCAR-8
# [25] = test system: T47D
# [26] = test system: OVCAR-3
# [27] = test system: HOP-92
# [28] = test system: MCF7
# [29] = test system: BT-549
# [30] = test system: HCT-15
# [31] = test system: RXF 393
# [32] = test system: KM12
# [33] = test system: Malme-3M
# [34] = test system: RPMI-8226
# [35] = test system: SF-268
# [36] = test system: MOLT-4
# [37] = test system: HT-29
# [38] = test system: HCT-116
# [39] = test system: SN12C
# [40] = test system: SW-620
# [41] = test system: MDA-MB-231
# [42] = test system: CCRF-CEM
# [43] = test system: NCI-H226
# [44] = test system: NCI-H460
# [45] = test system: UACC-257
# [46] = test system: HL-60
# [47] = test system: OVCAR-5
# [48] = test system: U-251
# [49] = test system: M14
# [50] = test system: 786-0
# [51] = test system: SNB-19
# [52] = test system: EKVX
# [53] = test system: HOP-62
# [54] = test system: UACC-62
# [55] = test system: SK-OV-3
# [56] = test system: IGROV-1
structure (smiles),measurement,setting,value
CC(=O)O[C@H]1CC2C(C3CC[C@H](C(C)CCC(N)=O)[C@]31C)[C@H](OC(C)=O)C[C@@H]1CC3(CC[C@]21C)OOC1(CCC(C)CC1)OO3 (some centres undefined),GI50,[1],1.56 µM (inactive)
same,GI50,[2],2.07 µM (inactive) and 2.38 µM (inactive)
same,GI50,[3],867 nM (active) and 1.47 µM (inactive)
same,GI50,[4],1.32 µM (inactive) and 1.48 µM (inactive)
same,GI50,[5],11.7 µM (inactive) and 14.3 µM (inactive)
same,GI50,[6],1.83 µM (inactive) and 1.92 µM (inactive)
same,GI50,[7],2.06 µM (inactive) and 2.38 µM (inactive)
same,GI50,[8],1.4 µM (inactive) and 1.71 µM (inactive)
same,GI50,[9],2.69 µM (inactive)
same,GI50,[10],2.06 µM (inactive) and 1.61 µM (inactive)
same,GI50,[11],2.48 µM (inactive) and 3.99 µM (inactive)
same,GI50,[12],2.55 µM (inactive) and 1.65 µM (inactive)
same,GI50,[13],1.8 µM (inactive)
same,GI50,[14],1.56 µM (inactive)
same,GI50,[15],1.74 µM (inactive) and 2.96 µM (inactive)
same,GI50,[16],2.99 µM (inactive) and 2 µM (inactive)
same,GI50,[17],1.87 µM (inactive) and 2.07 µM (inactive)
same,GI50,[18],2.29 µM (inactive) and 1.71 µM (inactive)
same,GI50,[19],1.91 µM (inactive)
same,GI50,[20],1.24 µM (inactive) and 1.79 µM (inactive)
same,GI50,[21],1.74 µM (inactive) and 2.23 µM (inactive)
same,GI50,[22],1.9 µM (inactive) and 2.7 µM (inactive)
same,GI50,[23],1.95 µM (inactive) and 2.72 µM (inactive)
same,GI50,[24],1.71 µM (inactive) and 1.47 µM (inactive)
same,GI50,[25],1.49 µM (inactive) and 2.01 µM (inactive)
same,GI50,[26],2.07 µM (inactive) and 1.79 µM (inactive)
same,GI50,[27],2.79 µM (inactive) and 1.65 µM (inactive)
same,GI50,[28],2.04 µM (inactive) and 2.65 µM (inactive)
same,GI50,[29],2.11 µM (inactive) and 1.72 µM (inactive)
same,GI50,[30],1.93 µM
same,GI50,[31],1.95 µM (inactive) and 2.69 µM (inactive)
same,GI50,[32],1.98 µM (inactive) and 1.83 µM (inactive)
same,GI50,[33],2.12 µM (inactive) and 2.53 µM (inactive)
same,GI50,[34],1.61 µM (inactive) and 1.5 µM (inactive)
same,GI50,[35],1.62 µM (inactive) and 1.83 µM (inactive)
same,GI50,[36],1.72 µM (inactive) and 1.47 µM (inactive)
same,GI50,[37],2.51 µM (inactive) and 1.54 µM (inactive)
same,GI50,[38],1.94 µM (inactive) and 2.26 µM (inactive)
same,GI50,[39],1.67 µM (inactive) and 2.27 µM (inactive)
same,GI50,[40],3.02 µM (inactive) and 2.11 µM (inactive)
same,GI50,[41],2.21 µM (inactive)
same,GI50,[42],1.52 µM (inactive)
same,GI50,[43],1.47 µM (inactive) and 2.09 µM (inactive)
same,GI50,[44],1.62 µM (inactive) and 2.28 µM (inactive)
same,GI50,[45],5.37 µM (inactive) and 4.6 µM (inactive)
same,GI50,[46],2.32 µM (inactive) and 2.93 µM (inactive)
same,GI50,[47],2.09 µM (inactive) and 2.04 µM (inactive)
same,GI50,[48],1.66 µM (inactive)
same,GI50,[49],2.22 µM (inactive) and 2.94 µM (inactive)
same,GI50,[50],1.86 µM (inactive) and 1.77 µM (inactive)
O=C1CC(c2ccccc2)n2c(nc3ccccc32)N1 (centres undefined),GI50,[1],> 100 µM (inactive)
same,GI50,[2],76.9 µM (inactive)
same,GI50,[51],> 100 µM (inactive)
same,GI50,[3],36.2 µM (inactive)
same,GI50,[4],> 100 µM (inactive)
same,GI50,[5],45.5 µM (inactive)
same,GI50,[52],73.5 µM (inactive)
same,GI50,[6],39.4 µM (inactive)
same,GI50,[8],29.9 µM (inactive)
same,GI50,[9],> 100 µM (inactive)
same,GI50,[10],37.8 µM (inactive)
same,GI50,[11],23.7 µM (inactive)
same,GI50,[12],> 100 µM (inactive)
same,GI50,[13],> 100 µM (inactive)
same,GI50,[53],> 100 µM (inactive)
same,GI50,[14],> 100 µM (inactive)
same,GI50,[15],20.5 µM (inactive)
same,GI50,[16],> 100 µM (inactive)
same,GI50,[17],73.5 µM (inactive)
same,GI50,[18],35.3 µM (inactive)
same,GI50,[19],18.9 µM (inactive)
same,GI50,[20],> 100 µM (inactive)
same,GI50,[21],64.1 µM (inactive)
same,GI50,[22],> 100 µM (inactive)
same,GI50,[23],> 100 µM (inactive)
same,GI50,[24],> 100 µM (inactive)
same,GI50,[25],25.4 µM (inactive)
same,GI50,[26],54.2 µM (inactive)
same,GI50,[27],17.9 µM (inactive)
same,GI50,[28],67.1 µM (inactive)
same,GI50,[29],29.2 µM (inactive)
same,GI50,[30],46.8 µM
same,GI50,[31],21 µM (inactive)
same,GI50,[32],> 100 µM (inactive)
same,GI50,[33],38.1 µM (inactive)
same,GI50,[34],27 µM (inactive)
same,GI50,[35],> 100 µM (inactive)
same,GI50,[54],72.9 µM (inactive)
same,GI50,[55],> 100 µM (inactive)
same,GI50,[36],65.8 µM (inactive)
same,GI50,[56],47.4 µM (inactive)
same,GI50,[37],> 100 µM (inactive)
same,GI50,[38],> 100 µM (inactive)
same,GI50,[40],51.9 µM (inactive)
same,GI50,[41],> 100 µM (inactive)
same,GI50,[42],> 10 µM (inactive)
same,GI50,[43],> 100 µM (inactive)
same,GI50,[44],> 100 µM (inactive)
same,GI50,[45],41.9 µM (inactive)
same,GI50,[46],16.8 µM (inactive)
same,GI50,[47],> 100 µM (inactive)
same,GI50,[48],71.8 µM (inactive)
same,GI50,[49],> 100 µM (inactive)
same,GI50,[50],74.8 µM (inactive)
